The source of these data is article PMC4872784 (Oncotarget, 2016).

Several values for one entry are separate records, joined by “and”; a condition that tells them apart may be missing. Equal entries are not always repeated.

As usually defined, the IC90 is the concentration needed for an effect of 90%. A higher IC90 goes with weaker potency. The term IC50 denotes the midpoint of a concentration-inhibition curve. By inhibition is commonly meant the share of the control response that was lost under treatment. What is called AUC(0-t) is the area under the concentration-time curve up to a stated or last time point. Read a high AUC(0-t) as high exposure. By Cmax is commonly meant the maximum level reached in the sampled fluid or tissue. As usually defined, the Tmax is the time at which the peak concentration occurs.

The test system of series [1] is MOLM14 cells. The series is described as follows: alamarBlue cytotoxicity assay, 48h. Particulars: for IC50: MOLM14 (AML), 48h, RPMI + 10% FBS. Type of series: cell-based, human. The procedure:
(§1) Following subtraction of background fluorescence from all wells, fluorescence of drug-treated cells was normalized to that of vehicle (<0.5% DMSO)-treated cells to determine the effect of each drug concentration on viability. Each cell line was tested in triplicate and in at least three independent experiments. IC50 (concentration that inhibits cell growth by 50%) values were calculated using CompuSyn software (ComboSyn, Paramus, NJ). […] In addition several cell lines were initially cultured and tested in alternative media (Supplementary Table S2). […] Colony counts were normalized to vehicle-treated controls (100%). Three independent experiments were performed.
(§2) In most experiments, cytotoxicity was assessed using alamarBlue assays (Life Technologies, Grand Island, NY). In experiments using NAC and DFO, which can interfere with alamarBlue assay performance, Trypan Blue dye exclusion was used instead. […]
(§3) experiments performed in triplicate. […] Age refers to age […]
(§4) at the time of leukemia diagnosis of the patient from whom the cell line was derived. (–) Indicates information unavailable.
(§5) *Cell lines with FLT3/ITD mutations.
(§6) *The MV-4–11 cell line was derived from a patient with a biphenotypic B-myelomonocytic leukemia; K562 was derived […]
(§7) 1A. p53 status was obtained from http://cancer.sanger.ac.uk/cell_lines/cbrowse/all and http://p53.free.fr/Database/Cancer_ cell_lines/Leukemia_cancer. html. WT: wild type. Mut: mutant. SM: single mutation. DM: double mutation. MM: multiple mutations. Fs: Frameshift mutation. Null: protein expression undetectable. […]
(§8) measured via alamarBlue assay. […]
On the technique in general: Resazurin is reduced to fluorescent resorufin, in cell work by metabolically active cells.

Another series deals with KOPN8 cells. The series is described as follows: alamarBlue cytotoxicity assay, 48h. Particulars: RPMI + 10% FBS. It counts as cell-based, human. The method, then:
as §1, §2, §3, §4, §5, §6, §7, §8

Series [2] deals with Jurkat T-cell acute lymphoblastic leukemia (T-ALL) cells. Further details: method as in PMID 23673218. Particulars: cited from earlier work.
The test system of series [3] is MOLM14 cells. Briefly: viable cell counts via Trypan Blue dye exclusion, 48h. It counts as cell-based, human. The procedure:
(§9) A. Quantification of the percentage of early apoptotic cells (Annexin-V+/7-AAD-) from three independent experiments in which cells were stained for apoptosis with 7-AAD and Annexin-V then analyzed by flow cytometry. […] C. […] 16h after addition of drugs, cells were washed and analyzed by flow cytometry for CM-H2DCFDA fluorescence (indicating total ROS generation) in the FL1 channel. Mean Fluorescence Intensity (MFI) was normalized to that of vehicle control (0.5% DMSO) with no pretreatment. […] Viable cell counts, obtained via Trypan Blue dye exclusion, were normalized to vehicle (0.02% DMSO)-treated samples +/– pretreatment.
In most experiments, cytotoxicity was assessed using alamarBlue assays (Life Technologies, Grand Island, NY). In experiments using NAC and DFO, which can interfere with alamarBlue assay performance, Trypan Blue dye exclusion was used instead.

The next series deals with K562 cells. The series is described as follows: clonogenicity (colony formation in semi-solid medium). Type of series: cell-based, human. Particulars: 24h pretreatment. The procedure: (§10) page 2: Supplementary Figure S3: […] hours. Two B-ALL (KOPN8, SEM) and two AML (MOLM14, THP-1) cell lines were treated with the indicated concentrations of ART- 838 or AS for 24–96 h, then viability determined as in Figure 1A. Data are represented as mean +/– SD. Supplementary Figure S4: […] Colony-forming assays were performed as in Figure 1B in A. K562 and B. HL-60 AML cell lines. Each experiment was performed once in triplicate. Data are represented as mean +/– SD.

A further series concerns HL-60 cells. The series is described as above. Type of series: cell-based, human. The conditions noted are these: 24h pretreatment. The method, then:
as §10

A further series concerns primary B-ALL case #109. Briefly: intravenous B-ALL primagraft model.
Series [4] concerns MOLM14 cells. The series is described as follows: apoptosis (Annexin-V/7-AAD flow cytometry). It counts as cell-based, human. The conditions noted are these: 24h. The method, then: as §9
(§11) Cells were co-stained with […] each 7-AAD and APC-conjugated Annexin-V (BioLegend), in Annexin-V binding buffer and analyzed by flow cytometry. Caspase-3/7 activity was measured using a Caspase-Glo 3/7 Assay (Promega, Madison, WI).

The subject of another series is NSG mice. Briefly: tolerability / maximum-tolerated dose. The method, then: (§12) Blood samples were collected via
(§13) retro-orbital bleeding into EDTA-coated tubes from MOLM14 NSG mice 1 day A-D. and 7 days E-H. after completion of a 5-day drug
(§14) CBCs were determined using a Hemavet 950 analyzer.
(§15) Normal blood samples were obtained from normal, untreated NSG mice (n = 37) over several years.

Series [5] deals with Caspase-3/7 activity in MOLM14 cells. Briefly: Caspase-Glo 3/7 Assay. It counts as cell-based, human. The conditions noted are these: AS 5 μM, 24h. The method, then:
as §9, §11

Series [6] is described as follows: in vivo. The conditions noted are these: male, NSG, mouse, plasma, po, 200 mg/kg.
Description: Plasma samples were obtained from 3-6 male NSG mice per time point (15min-24h after drug administration). Symbols represent concentrations of compound by LC/MS-MS detection.
Blood samples were collected via retro-orbital bleeding into EDTA-coated tubes. PK samples were centrifuged to obtain plasma, which was stored frozen (−80°C) until liquid chromatography/triple quadrupole mass spectrometry (LC/MS-MS) analysis.
were separated using an Agilent Zorbax Eclipse C18 column (2.1 mm x 50 mm, 3.5 μm) using gradient mobile phase
(acetonitrile and 2 mM ammonium acetate both containing 0.1% formic acid) and a gradient flow rate (0.2 to 0.4 ml/
min). An AB Sciex 5500 triple quadrupole mass spectrometer was used for detection. The m/z transitions used were
The calibration range was 5–1,000 ng/mL for all analytes. Mean drug concentrations were calculated at each time point. PK parameters (plasma
half-life [T1/2]; time to reach Cmax [Tmax]; maximum plasma concentration [Cmax]; area under the plasma concentration-
time curve [AUC] from time zero to the last measurable concentration [AUClast]; AUC from time zero to infinity [i.e.,
the AUClast + the extrapolated AUC from AUClast to infinity; AUC0–∞]; apparent volume of distribution [Vz/F]; body
weight-adjusted apparent clearance [CL/F/kg]) were calculated from mean drug concentration-time data using non-
the r2 of the elimination rate constant (λ ) was < 0.9, the AUC , CL/F, and T were not reported (NR).
Series [7] in a line: in vivo. The conditions noted are these: NSG, mouse, in vivo, po. The method, then:
as §12, §13, §14, §15

Setting [8] is: four 5-day cycles ART-838 40 mg/kg/d.
Where [9] appears, read: four 5-day cycles AS 150 mg/kg/d.

Description for primary B-ALL case #109: Mice were weighed weekly and tumors measured at least twice weekly. […] Mice were euthanized when tumors reached an estimated 2000mg. […] Mice were weighed weekly and observed daily for clinical signs of severe leukemia.
Highly immunodeficient NSG mice, obtained originally from Jackson Laboratory (Bar Harbor, ME), were bred and housed in the UMSOM animal facilities, and handled in a laminar flow hood under aseptic conditions. All experiment procedures and animal care were in compliance with the NIH guidelines for the Care and Use of Laboratory Animals and approved by the UMSOM Institutional Animal Care and Use Committee. Drugs were formulated in Tween 80:ethanol (7:3, v:v) and diluted 1:10 in filtered deionized water immediately before administration. […] Mice were monitored daily and euthanized when tumors reached an estimated mass of 2000mg (using the formula: [length x width^2]/2, assuming density = 1 mg/mm^3) [56]. […] Mice were euthanized for clinical signs of severe leukemia or other severe distress [52].
Mice were weighed weekly and observed daily for clinical signs of severe

In turn, `C[C@@H]1CCC2[C@@H](C)[C@@H](CC(COP(=O)(Oc3ccccc3)Oc3ccccc3)C[C@H]3O[C@@H]4O[C@@]5(C)CCC6[C@H](C)CCC([C@H]3C)[C@]64OO5)O[C@@H]3O[C@@]4(C)CCC1[C@@]23OO4` (some centres unmarked) [ART-838, artemisinin-derived trioxane diphenylphosphate dimer 838] returned a concentration for an effect of 90% (IC90) in the series on MOLM14 cells [1] (MOLM14) of 100 nM. The IC50 came out at 25 nM in the series on MOLM14 cells [1] and 12 ± 2 nM with KOPN8 cells (KOPN8 (B-ALL)). For the same compound, the “growth inhibition by 48h” value in the series with MOLM14 cells [1] (MOLM14, 0.1 μM ART-838, alamarBlue) is recorded as 90-99%. Further, the “fold lower IC50 than that of AS” value in series [2] is on record as ~70 fold. Moreover, the “fold resistance to growth inhibition after DFO pretreatment” value in the series on MOLM14 cells [3] (MOLM14, DFO 11 μM pretreatment) was 3 fold. Also, in the series with MOLM14 cells [3] (MOLM14, NAC 25 μM pretreatment), the “fold resistance to growth inhibition after NAC pretreatment” value is on record as “not increased”. Also, the clonogenicity entry in the series with K562 cells and with HL-60 cells was “reduced clonogenicity” each time. In the series with primary B-ALL case #109 (setting [8]), the “body weight loss following treatment” value is reported as “No dose-limiting body weight loss”. In addition, in the series on primary B-ALL case #109 (setting [8]), the “extension of mean survival time” value came out at 20 days. Moreover, the “prolongation of mean survival time” value with primary B-ALL case #109 (setting [8]) amounted to 55%. The “Mean time to severe clinical signs of leukemia (surrogate for survival)” value (from here on “Mean time to severe clinical signs”) with primary B-ALL case #109 (four 5-day cycles ART-838 40 mg/kg/d oral gavage, vehicle 37) is recorded as 57; with primary B-ALL case #109 (second experiment: two 5-day cycles ART-838 50 mg/kg/d, days 1 and 29, vehicle 28), 47. In addition, the “fold lower concentration than AS achieving similar levels of apoptosis and caspase-3/7 activity” value with MOLM14 cells [4] was determined as 50 fold. Further, in the series with NSG mice (5 days/week by oral gavage, NSG mice), the “chronic MTD” value was 40 to 50 mg/kg. In the series on NSG mice (NSG mice, oral gavage), the dose-limiting toxicity result is given as “acute weight loss”. The clinical neurotoxicity entry in the series on NSG mice (NSG mice, prior toxicity experiments at approximate chronic MTD) was “no clinical neurotoxicity was observed”. In the series on NSG mice (normal NSG mice, 5-day cycle ART-838 50 mg/kg/d, days 6 and 12), the “complete and differential blood cell counts” value is “normal complete and differential blood cell counts”. The “single dose MTD” value in the series with NSG mice (oral gavage, NSG mice) was in the range of 500 to 600 mg/kg.

With `C[C@H]1[C@H](OC(=O)CCC(=O)O)O[C@@H]2O[C@@]3(C)CC[C@H]4[C@H](C)CC[C@@H]1[C@@]24OO3` [AS, artesunate], the inhibition at 5 µM in the series on MOLM14 cells [1] (Homo sapiens, MOLM-14, 48 h, MOLM14, 5 μM AS, alamarBlue, read-out: growth inhibition by 48h) is 90 to 99%. Besides, the IC90 with MOLM14 cells [1] (Homo sapiens, MOLM-14, MOLM14) amounted to 5000 nM. In the series with MOLM14 cells [1] (Homo sapiens, MOLM-14), the IC50 is 825 nM. Also, the IC50 in the series with KOPN8 cells (Homo sapiens, KOPN-8, KOPN8 (B-ALL)) was found to be 459 ± 49 nM. Further, the IC50 in the series with MOLM14 cells [3] (Homo sapiens, MOLM-14, MOLM14, 48h, Pre-Treatment: CTRL, unit inferred, read-out: IC50) was 885 ± 57 nM. Also, the caspase-3/7 activity result in series [5] is “caspase-3/7 activation”. In addition, the clonogenicity result in the series with K562 cells is “reduced clonogenicity”. Moreover, the clonogenicity entry in the series on HL-60 cells was “reduced clonogenicity”. In “in vivo [6]”, the AUC(0-t) amounted to 34.8 ng·h/mL; the Cmax is 67 ng/mL and 240 nM; the Tmax came out at 15 min. For the same compound, in the series on primary B-ALL case #109 (setting [9]), the “body weight loss following treatment” value is listed as “No dose-limiting body weight loss”, the “extension of mean survival time” value came out at 19 days and the “prolongation of mean survival time” value worked out at 51%. The “Mean time to severe clinical signs” value in the series with primary B-ALL case #109 (four 5-day cycles AS 150 mg/kg/d oral gavage, vehicle 37) worked out at 56. In addition, the “Mean time to severe clinical signs” value in the series on primary B-ALL case #109 (second experiment: two 5-day cycles AS 200 mg/kg/d, days 1 and 29, vehicle 28) came out at 43. In addition, the apoptosis result in the series on MOLM14 cells [4] (AS 5 μM) is “induced significant apoptosis”. Also, the clinical neurotoxicity entry with NSG mice (mouse, in vivo) is on record as “no clinical neurotoxicity was observed”. Also, in the series with NSG mice (mouse, in vivo, po), the dose-limiting toxicity entry is reported as “acute weight loss”. In “in vivo [7]”, the MTD was 500 to 600 mg/kg and the MTD at 5 days/week was in the range of 150 to 200 mg/kg.
